Reference: patent publication US20100247456A1, “METHODS AND COMPOSITIONS FOR PREVENTING CARIES” (priority 2009, published 2010)
Where “and” joins values, the source holds several entries; their conditions need not be identical. Equal values may be shown once.

Test system: caries
Experiment: 6-month comparison of silver-diamine-fluoride (SDF) and fluoride varnish in school aged children
Assay type: in vivo
Experimental: A fluoride composition was used in the study.
The compositions were applied once at the time of the initial exam using a tiny brush to any decayed area for 3 min, then the child rinsed.

[1] = after 6 months, applied once to decayed area for 3 min

## silver diamine fluoride [SDF]
[1/(Varnish % − SDF %)], 6 months
  SDF Number Needed To Treat, Active Caries: 1.2
[(Varnish % − SDF %)/Varnish %], 6 months
  SDF Prevented Fraction, Active Caries: 82.7
After 6 months
  reduction in active caries compared to fluoride varnish: about 80%
[1]
  Active Caries, # of School Children, Frequency: 20
  Active Caries, # of School Children, Percent: 16% and 16.8%
  Active and Arrested Caries in same child, # of School Children, Frequency: 69
  Active and Arrested Caries in same child, # of School Children, Percent: 58.0%
  Arrested Caries, # of School Children, Frequency: 27
  Arrested Caries, # of School Children, Percent: 22.7%
  Dental Fillings, # of School Children, Frequency: 3
  Dental Fillings, # of School Children, Percent: 2.5%
